target: T1, human TRPV3 (Homo sapiens, UniProt Q8NET8); experiment: Calcium flux assay (FLIPR TETRA), recombinant HEK293 cells expressing TRPV3, 2-APB response; assay type: cell-based; conditions: 2-APB at its EC80
T1 construct: expressed in transfected cells; host or cells: HEK293
T1 sequence (Q8NET8 1-790): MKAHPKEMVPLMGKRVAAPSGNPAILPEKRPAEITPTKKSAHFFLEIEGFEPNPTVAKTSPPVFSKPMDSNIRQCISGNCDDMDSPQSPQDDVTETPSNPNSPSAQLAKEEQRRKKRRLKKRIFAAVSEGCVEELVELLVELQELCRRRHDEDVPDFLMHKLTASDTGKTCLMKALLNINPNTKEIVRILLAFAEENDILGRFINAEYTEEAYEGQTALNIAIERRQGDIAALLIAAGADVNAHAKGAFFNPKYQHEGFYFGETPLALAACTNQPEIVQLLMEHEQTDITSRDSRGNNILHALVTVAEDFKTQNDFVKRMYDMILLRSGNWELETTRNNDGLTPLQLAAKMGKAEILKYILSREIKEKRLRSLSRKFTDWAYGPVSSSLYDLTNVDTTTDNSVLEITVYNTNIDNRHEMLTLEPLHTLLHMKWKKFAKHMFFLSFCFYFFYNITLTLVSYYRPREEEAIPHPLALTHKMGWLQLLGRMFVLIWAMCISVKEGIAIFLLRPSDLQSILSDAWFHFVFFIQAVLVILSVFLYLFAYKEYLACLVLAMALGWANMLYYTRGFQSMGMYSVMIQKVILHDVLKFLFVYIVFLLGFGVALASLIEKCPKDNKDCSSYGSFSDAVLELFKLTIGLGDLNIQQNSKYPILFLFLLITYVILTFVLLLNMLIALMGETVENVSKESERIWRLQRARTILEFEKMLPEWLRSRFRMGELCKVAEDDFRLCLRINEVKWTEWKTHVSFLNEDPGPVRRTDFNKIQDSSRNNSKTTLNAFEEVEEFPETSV
Procedure, shortened: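 Response is the peak fluorescence increase over baseline, as a percentage of the compound-free response to 2-APB at EC80. Calcium flux recorded on FLIPR TETRA in stable human or mouse TRPV3 HEK293 cells after 90–120 min Calcium-4 dye loading.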

SMILES	IC50 [nM]
COCCN(C)S(=O)(=O)c1cccc(-c2sc(NC(=O)c3c(OC)ncnc3OC)nc2C(F)(F)F)c1 [Example 197, 4,6-dimethoxy-N-[5-{3-[(2-methoxyethyl)(methyl)sulfamoyl]phenyl}-4-(trifluoromethyl)-1,3-thiazol-2-yl]pyrimidine-5-carboxamide]	< 50
COc1ncnc(OC)c1C(=O)Nc1nc(C(F)(F)F)c(CN2CCCC3(COC3)C2)s1 [Example 62, 4,6-dimethoxy-N-[5-(2-oxa-6-azaspiro[3.5]non-6-ylmethyl)-4-(trifluoromethyl)-1,3-thiazol-2-yl]pyrimidine-5-carboxamide]	50 to 100
COc1ncnc(OC)c1C(=O)Nc1nc(C)c(C)s1 [Example 9, N-(4,5-dimethyl-1,3-thiazol-2-yl)-4,6-dimethoxypyrimidine-5-carboxamide]	> 1000
CCc1sc(NC(=O)c2c(OC)nc(C)nc2OC)nc1C(F)(F)F [Example 69, N-[5-ethyl-4-(trifluoromethyl)-1,3-thiazol-2-yl]-4,6-dimethoxy-2-methylpyrimidine-5-carboxamide]	50 to 100
COCc1sc(NC(=O)c2c(OC)ncnc2OC)nc1C(F)(F)F [Example 206, 4,6-dimethoxy-N-(5-(methoxymethyl)-4-(trifluoromethyl)thiazol-2-yl)pyrimidine-5-carboxamide]	100 to 500
COc1ncnc(OC)c1C(=O)Nc1nc(C(F)(F)F)c(C2CCCOC2)s1 (centres unmarked) [Example 148, 4,6-dimethoxy-N-[5-(tetrahydro-2H-pyran-3-yl)-4-(trifluoromethyl)-1,3-thiazol-2-yl]pyrimidine-5-carboxamide]	50 to 100
COc1ncnc(OC)c1C(=O)Nc1nc(CC(C)(C)C)cs1 [Example 191, N-[4-(2,2-dimethylpropyl)-1,3-thiazol-2-yl]-4,6-dimethoxypyrimidine-5-carboxamide]	50 to 100
COc1ncnc(OC)c1C(=O)Nc1nc(-c2ccc(C(F)(F)F)cn2)c(C2(C)OCCO2)s1 [Example 90, 4,6-dimethoxy-N-{5-(2-methyl-1,3-dioxolan-2-yl)-4-[5-(trifluoromethyl)pyridin-2-yl]-1,3-thiazol-2-yl}pyrimidine-5-carboxamide]	50 to 100
COc1ncnc(OC)c1C(=O)Nc1nc(C(F)(F)F)c(CCO)s1 [Example 22, N-[5-(2-hydroxyethyl)-4-(trifluoromethyl)-1,3-thiazol-2-yl]-4,6-dimethoxypyrimidine-5-carboxamide]	> 1000
COc1ncnc(OC)c1C(=O)Nc1nc(-c2ccc(OC(F)(F)F)cc2)c(C(C)O)s1 (centres unmarked) [Example 82, N-{5-(1-hydroxyethyl)-4-[4-(trifluoromethoxy)phenyl]-1,3-thiazol-2-yl}-4,6-dimethoxypyrimidine-5-carboxamide]	100 to 500
COc1ncc(-c2sc(NC(=O)c3c(OC)ncnc3OC)nc2C(F)(F)F)cc1C#N [Example 184, N-[5-(5-cyano-6-methoxypyridin-3-yl)-4-(trifluoromethyl)-1,3-thiazol-2-yl]-4,6-dimethoxypyrimidine-5-carboxamide]	< 50
COc1ncnc(OC)c1C(=O)Nc1nc(C(F)(F)F)c(/C(=N/O)c2ccccc2)s1 [Example 126, N-{5-[(E)-(hydroxyimino)(phenyl)methyl]-4-(trifluoromethyl)-1,3-thiazol-2-yl}-4,6-dimethoxypyrimidine-5-carboxamide]	< 50
COc1ncnc(OC)c1C(=O)Nc1nc(C(F)(F)F)c(-c2ccc(C(C)(C)C#N)cc2)s1 [Example 173, N-{5-[4-(2-cyanopropan-2-yl)phenyl]-4-(trifluoromethyl)-1,3-thiazol-2-yl}-4,6-dimethoxypyrimidine-5-carboxamide]	100 to 500
COc1ncnc(OC)c1C(=O)Nc1nc(C(F)(F)F)c(I)s1 [Example 2, N-[5-iodo-4-(trifluoromethyl)-1,3-thiazol-2-yl]-4,6-dimethoxypyrimidine-5-carboxamide]	< 50
COc1ncnc(OC)c1C(=O)Nc1nc(-c2ccc(C(F)(F)F)cn2)c([S+](C)[O-])s1 (centres unmarked) [Example 113, 4,6-dimethoxy-N-[5-methylsulfinyl-4-[5-(trifluoromethyl)-2-pyridyl]-1,3-thiazol-2-yl]pyrimidine-5-carboxamide]	500 to 1000
COc1ncnc(OC)c1C(=O)Nc1nc(C(F)(F)F)c(CN2CC[C@H](OC)C2)s1 [Example 59, 4,6-dimethoxy-N-[5-{[(3S)-3-methoxypyrrolidin-1-yl]methyl}-4-(trifluoromethyl)-1,3-thiazol-2-yl]pyrimidine-5-carboxamide]	500 to 1000
CCOc1ncnc(OCC)c1C(=O)Nc1nc(C(F)(F)F)c(CC)s1 [Example 71, 4,6-diethoxy-N-[5-ethyl-4-(trifluoromethyl)-1,3-thiazol-2-yl]pyrimidine-5-carboxamide]	< 50
COc1ncnc(OC)c1C(=O)Nc1nc(C2CC2)c(Cc2ccc(F)cc2)s1 [Example 190, N-[4-cyclopropyl-5-(4-fluorobenzyl)-1,3-thiazol-2-yl]-4,6-dimethoxypyrimidine-5-carboxamide]	50 to 100
COc1ncnc(OC)c1C(=O)Nc1nc(C(F)(F)F)c(-c2ccnn2C)s1 [Example 176, 4,6-dimethoxy-N-[5-(1-methyl-1H-pyrazol-5-yl)-4-(trifluoromethyl)-1,3-thiazol-2-yl]pyrimidine-5-carboxamide]	100 to 500
COc1ncnc(OC)c1C(=O)Nc1nc(C(F)(F)F)c(-c2cnn(C(C)C)c2)s1 [Example 174, 4,6-dimethoxy-N-{5-[1-(propan-2-yl)-1H-pyrazol-4-yl]-4-(trifluoromethyl)-1,3-thiazol-2-yl}pyrimidine-5-carboxamide]	< 50
COc1ncnc(OC)c1C(=O)Nc1nc(C(F)(F)F)c(C=O)s1 [Example 47, N-[5-formyl-4-(trifluoromethyl)-1,3-thiazol-2-yl]-4,6-dimethoxypyrimidine-5-carboxamide]	> 1000
COc1ncnc(OC)c1C(=O)Nc1nc(C(F)(F)F)c(-c2ocnc2C)s1 [Example 141, 4,6-dimethoxy-N-[5-(4-methyl-1,3-oxazol-5-yl)-4-(trifluoromethyl)-1,3-thiazol-2-yl]pyrimidine-5-carboxamide]	50 to 100
COc1ncnc(OC)c1C(=O)Nc1nc(C(F)(F)F)c(C2=CCCO2)s1 [Example 143, N-[5-(4,5-dihydrofuran-2-yl)-4-(trifluoromethyl)-1,3-thiazol-2-yl]-4,6-dimethoxypyrimidine-5-carboxamide]	< 50
COC/C=C/c1sc(NC(=O)c2c(OC)ncnc2OC)nc1C(F)(F)F [Example 18, 4,6-dimethoxy-N-{5-[(1E)-3-methoxyprop-1-en-1-yl]-4-(trifluoromethyl)-1,3-thiazol-2-yl}pyrimidine-5-carboxamide]	< 50
COc1ncnc(OC)c1C(=O)Nc1nc(-c2ccc(C(F)(F)F)cn2)cs1 [Example 73, 4,6-dimethoxy-N-{4-[5-(trifluoromethyl)pyridin-2-yl]-1,3-thiazol-2-yl}pyrimidine-5-carboxamide]	< 50
COc1ncnc(OC)c1C(=O)Nc1nc(-c2ccc(OC(F)(F)F)cn2)cs1 [Example 92, 4,6-dimethoxy-N-{4-[5-(trifluoromethoxy)pyridin-2-yl]-1,3-thiazol-2-yl}pyrimidine-5-carboxamide]	< 50

Reference: patent publication US20180243298A1, “TRPV3 MODULATORS” (AbbVie Inc., priority 2015, published 2018)
